The record followed here is publication PMC6904209 (Methods in enzymology, 2017).

Test [1] has as its target T1, Human recombinant SCP-2 (Homo sapiens, UniProt P22307).
T1 sequence (P22307 1-143 isoform P22307-2): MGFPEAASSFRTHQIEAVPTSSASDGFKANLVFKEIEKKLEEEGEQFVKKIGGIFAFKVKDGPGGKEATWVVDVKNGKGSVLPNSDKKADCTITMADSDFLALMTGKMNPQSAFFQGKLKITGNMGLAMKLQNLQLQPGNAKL
In words: NBDS displacement assay. The note with it: for Max % Displacement: displacement of SCP-2 (500 nM)-bound NBDS (500 nM), 24°C, 10 mM phosphate buffer pH 7.4, n=4. Format: binding.

Test [2] deals with T1, Human recombinant SCP-2. Kind of test: Reverse and forward titrations of NBDS with SCP-2. Format: binding. The note with it: forward titration, SCP-2 500 nM, NBDS 0–1.8 μM.
[3] abbreviates: Ki = (Kd,NBDS × EC50)/[NBDS]total, NBDS 0.5 μM.
Setting [4] is: Ki, Ki = (Kd,NBDS × EC50)/[NBDS]total, NBDS 0.5 μM.

Where two headings read alike, the source gives them in different places.

In general, Ki refers to the dissociation constant of the complex between target and ligand, obtained from inhibition or displacement. With `CCCCC/C=C\C/C=C\C/C=C\C/C=C\CCCC(=O)NCCO` [Compound 1, N-arachidonoylethanolamine], the Ki in test [1] (setting [3]) was found to be 680 ± 50 nM. Moreover, the “Max % Displacement” value in test [1] is 59.3 ± 1.2%.

By EC50 is commonly meant the midpoint of the concentration-response curve. With `CCCCC/C=C\C/C=C\C/C=C\C/C=C\CCCC(=O)OC(CO)CO` [Compound 2, 2-arachidonoylglycerol], in test [1], the EC50 amounted to 840 ± 40 nM and the “Max % Displacement” value amounted to 55.1 ± 1.0%. Moreover, in test [1] (setting [4]), the Ki was determined as 370 ± 20 nM.

As to `CCCCC/C=C\C/C=C\C/C=C\C/C=C\CCCC(=O)OCC(O)CO` (stereo not shown) [Compound 3, 1-arachidonoyl glycerol], in test [1], the half-maximal effective concentration (EC50) worked out at 1870 ± 50 nM and the “Max % Displacement” value amounted to 57.7 ± 0.7%. Further, in test [1] (setting [4]), the Ki amounted to 820 ± 20 nM.

Take `CCCCC/C=C\C/C=C\C/C=C\C/C=C\CCCC(=O)NC(CO)CO` [Compound 4, N-arachidonoyl serinol]: the Ki in test [1] (setting [3]) was found to be 2950 ± 120 nM. Besides, in test [1] (NBDS displacement, versus 2-AG (2)), the “fold reduction in potency compared to 2” value was 8 fold. The “Max % Displacement” value in test [1] stood at 69.2 ± 1.7%.

For `CCCCC/C=C\C/C=C\C/C=C\C/C=C\CCCC(=O)NCCF` [Compound 5, arachidonoyl-2’-fluoroethylamide], in test [1] (setting [3]), the Ki amounted to 2780 ± 210 nM. The “Max % Displacement” value in test [1] came out at 64.4 ± 2.2%.

For `CCCCC/C=C\C/C=C\C/C=C\C/C=C\CCCC(=O)OCCN` [Compound 6, O-arachidonoylethanolamine], the Ki in test [1] (setting [3]) stood at 1600 ± 20 nM. The “Max % Displacement” value in test [1] is listed as 94.7 ± 1.6%.

For `CCCCC/C=C\C/C=C\C/C=C\C/C=C\CCCC(=O)NCC(=O)O` [Compound 7, N-arachidonoyl glycine], the Ki in test [1] (setting [3]) stood at 1220 ± 30 nM. Besides, in test [1], the “Max % Displacement” value was 82.0 ± 0.8%.

Take `CCCCC/C=C\C/C=C\C/C=C\C/C=C\CCCC(=O)NCCc1c[nH]c2ccc(O)cc12` [Compound 8, N-arachidonoyl serotonin]: in test [1] (setting [3]), the Ki was found to be 1460 ± 20 nM. The “Max % Displacement” value in test [1] was found to be 84.8 ± 0.8%.

As for `CCCCC/C=C\C/C=C\C/C=C\C/C=C\CCCC(=O)NCCc1ccc(O)c(O)c1` [Compound 9, N-arachidonoyl dopamine], in test [1] (setting [3]), the Ki was 1120 ± 20 nM. The “Max % Displacement” value in test [1] came to 94.9 ± 0.1%.

Take `CCCCC/C=C\C/C=C\C/C=C\C/C=C\CCCC(=O)Nc1ccc(O)cc1` [Compound 10, N-arachidonoyl-p-aminophenol]: in test [1] (setting [3]), the Ki came out at 1410 ± 30 nM. Moreover, the “Max % Displacement” value is 89.2 ± 0.8% in test [1] and 89% in test [1] (listed as AM404).

In the case of `CCCCC/C=C\C/C=C\C/C=C\C/C=C\CCCC(N)=O` [Compound 11, Arachidonoyl amide], the Ki in test [1] (setting [3]) stood at 1800 ± 100 nM. For the same compound, in test [1], the “Max % Displacement” value is reported as 71.1 ± 1.3%.

As for `CCCCCCCC/C=C\CCCCCCCC(N)=O` [Compound 12, Oleamide], in test [1], the EC50 came to 13100 ± 2300 nM, the Ki was 5800 ± 1000 nM and the “Max % Displacement” value was 68.3 ± 1.7%.

`CC/C=C\C/C=C\C/C=C\C/C=C\C/C=C\C/C=C\CCC(=O)NCCO` [Compound 13, docosahexaenoyl ethanolamide]: the Ki in test [1] (setting [3]) was found to be 1910 ± 40 nM. Besides, in test [1], the “Max % Displacement” value is 73.9 ± 1.3%.

Take `CC(=O)Nc1ccc(Nc2nc(-c3ccc(Cl)c(Cl)c3)cs2)cc1` [Compound 14]: the inhibitory constant (Ki) in test [1] (setting [3]) was 1000 ± 100 nM. Besides, the “Max % Displacement” value in test [1] is 96.6 ± 0.7%.

For the compound `CCCCCCC(CCCCCCCCCCC(=O)O)N(C)c1ccc([N+](=O)[O-])c2nonc12` (stereo not shown) [NBDS, 12-N-methyl-(7-nitrobenz-2-oxa-1,3-diazo)aminostearic acid], the Bmax in test [2] is recorded as 0.89 ± 0.04 binding sites per molecule of SCP-2.
